Reference: ChEMBL document CHEMBL1131550, “Conformationally constrained inhibitors of caspase-1 (interleukin-1 beta converting enzyme) and of the human CED-3 homologue caspase-3 (CPP32, apopain)” (Bioorg Med Chem Lett, 1998)

How the values were obtained:
Caspase-1 = molecular target: T1, Caspase-1 (Mus musculus, UniProt P29452); assay: Inhibitory activity against Caspase-1 using Ac-TyrValAlaAsp-amc as substrate
T1 sequence (P29452 whole entry): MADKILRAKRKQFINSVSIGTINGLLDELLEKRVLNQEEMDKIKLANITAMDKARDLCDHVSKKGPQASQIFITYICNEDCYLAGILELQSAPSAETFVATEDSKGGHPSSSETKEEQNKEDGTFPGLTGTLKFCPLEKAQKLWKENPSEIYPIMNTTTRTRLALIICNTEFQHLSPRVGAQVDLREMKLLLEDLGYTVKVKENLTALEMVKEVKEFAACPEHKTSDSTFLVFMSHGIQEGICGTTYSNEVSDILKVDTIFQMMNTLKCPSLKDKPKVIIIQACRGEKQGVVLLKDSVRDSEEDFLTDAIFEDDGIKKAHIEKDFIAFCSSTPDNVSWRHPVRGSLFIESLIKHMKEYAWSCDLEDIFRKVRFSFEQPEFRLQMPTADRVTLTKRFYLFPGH

Caspase-3 = molecular target: T2, Caspase-3 (Homo sapiens, UniProt P42574); assay: Inhibitory activity against human Caspase-3 using Ac-AspGluValAsp as substrate
T2 sequence (P42574 whole entry): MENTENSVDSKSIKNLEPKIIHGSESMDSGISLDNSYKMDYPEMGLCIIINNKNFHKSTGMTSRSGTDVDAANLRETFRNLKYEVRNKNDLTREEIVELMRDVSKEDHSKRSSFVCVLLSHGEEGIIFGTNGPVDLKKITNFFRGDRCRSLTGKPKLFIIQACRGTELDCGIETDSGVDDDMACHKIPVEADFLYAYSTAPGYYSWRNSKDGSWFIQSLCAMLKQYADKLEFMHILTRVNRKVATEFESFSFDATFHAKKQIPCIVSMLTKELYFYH

An IC50 (Caspase-1) of 64 nM was found for `CC(C)[C@H](NC(=O)OCc1ccccc1)C(=O)N[C@@H](C)C(=O)N[C@H]1CC(=O)OC1O` (stereo partly drawn) in this work.
An IC50 (Caspase-3) of 0.018 µM and an IC50 (Caspase-1) of 10400 nM were found for `CC(=O)N[C@@H](CC(=O)O)C(=O)N[C@H]1CCC[C@H]2SC[C@@H](C(=O)N[C@H]3CC(=O)OC3O)N2C1=O` (stereo partly drawn) in this work.
For `O=C1C[C@H](NC(=O)[C@@H]2CS[C@@H]3CCC[C@H](NC(=O)OCc4ccccc4)C(=O)N32)C(O)O1` (stereo partly drawn), the IC50 (Caspase-3) was > 10 µM and the IC50 (Caspase-1) was 159 nM.
For `O=C(CN1CC[C@H](NC(=O)OCc2ccccc2)C1=O)N[C@H]1CC(=O)OC1O` (stereo partly drawn), the IC50 (Caspase-3) was > 10 µM and the IC50 (Caspase-1) was > 10000 nM.
With `C[C@@H](C(=O)N[C@H]1CC(=O)OC1O)N1CC[C@H](NC(=O)OCc2ccccc2)C1=O` (stereo partly drawn) the IC50 (Caspase-3) was > 100 µM and the IC50 (Caspase-1) was 3700 nM.
An IC50 (Caspase-1) of 4800 nM was found for `O=C1C[C@H](NC(=O)[C@@H]2CS[C@H]3CC[C@H](NC(=O)OCc4ccccc4)C(=O)N32)C(O)O1` (stereo partly drawn) in this work.
An IC50 (Caspase-1) of 1680 nM was found for `O=C(CN1CCCC[C@H](NC(=O)OCc2ccccc2)C1=O)N[C@H]1CC(=O)OC1O` (stereo partly drawn) in this work.
`O=C1C[C@H](NC(=O)[C@@H]2CCC[C@@H]3CCC[C@H](NC(=O)OCc4ccccc4)C(=O)N32)C(O)O1` (stereo partly drawn) was tested, and the IC50 (Caspase-3) was > 10 µM and the IC50 (Caspase-1) was 36 nM.
An IC50 (Caspase-1) of 4.6 nM was found for `CC(=O)N[C@@H](Cc1ccc(O)cc1)C(=O)N[C@H](C(=O)N[C@@H](C)C(=O)N[C@H]1CC(=O)OC1O)C(C)C` (stereo partly drawn) in this work.
`O=C(CN1CCC[C@H](NC(=O)OCc2ccccc2)C1=O)N[C@H]1CC(=O)OC1O` (stereo partly drawn) was tested, and the IC50 (Caspase-3) was > 100 µM and the IC50 (Caspase-1) was 37000 nM.
`C[C@@H](C(=O)N[C@H]1CC(=O)OC1O)N1CCCC[C@H](NC(=O)OCc2ccccc2)C1=O` (stereo partly drawn) was tested, and the IC50 (Caspase-3) was > 10 µM and the IC50 (Caspase-1) was 186 nM.
An IC50 (Caspase-1) of 95 nM was found for `CC(C)[C@H](NC(=O)OCc1ccccc1)C(=O)N1CCCC[C@H]1C(=O)N[C@H]1CC(=O)OC1O` (stereo partly drawn) in this work.
An IC50 (Caspase-1) of 523 nM was found for `CC(=O)N[C@@H](CC(=O)O)C(=O)N[C@H](C(=O)N[C@@H](C)C(=O)N[C@H]1CC(=O)OC1O)C(C)C` (stereo partly drawn) in this work.
An IC50 (Caspase-3) of 0.0012 µM and an IC50 (Caspase-1) of 71 nM were found for `CC(=O)N[C@@H](CC(=O)O)C(=O)N[C@@H](CCC(=O)O)C(=O)N[C@H](C(=O)N[C@H]1CC(=O)OC1O)C(C)C` (stereo partly drawn) in this work.
An IC50 (Caspase-1) of 87 nM was found for `CC(C)[C@H](NC(=O)OCc1ccccc1)C(=O)N1CCC[C@H]1C(=O)N[C@H]1CC(=O)OC1O` (stereo partly drawn) in this work.
